Test results published in ChEMBL document CHEMBL4619722, “Alanine scan-guided synthesis and biological evaluation of analogues of culicinin D, a potent anticancer peptaibol” (Bioorg Med Chem Lett, 2020).
Numbered stars: 1 amine (or outer) side, 2 acyl side, 3 side chain; on linkers, the order of the positions; unused ones are H or OH. Square brackets hold non-standard residues; d marks the D form. Peptide text beside a SMILES is read from it. * marks the point of attachment. ξ: configuration not given here. X1 = CCC(=O)C[C@H](O)C[C@@H](C)C[C@H](N[*:1])C(=O)[*:2]; Nva(5-pentanoyl) = CCCCC(=O)CCC[C@H](N)C(=O)O; NH((S)CH(Me)CH2NHC2H4OH) = C[C@@H](CNCCO)N*; Gly(octyl) = CCCCCCCC[C@H](N)C(=O)O; X2 = O=C([C@H](CCCCO)N[*:1])[*:2]; Ala(cPr) = N[C@@H](CC1CC1)C(=O)O; X3 = C[C@H](NC[C@H](C)N*)C(=O)O; Chg = N[C@H](C(=O)O)C1CCCCC1; Ac6c = NC1(C(=O)O)CCCCC1; Ac4c = NC1(C(=O)O)CCC1; Ac3c = NC1(C(=O)O)CC1; Aib = CC(C)(N)C(=O)O; Butyryl = CCCC(=O)*; ξP = O=C(O)C1CCCN1; βAla = NCCC(=O)O

Columns and labels:
Format in all cases: functional, cell-based
MDA-MB-468 = assay: Antiproliferative activity against human MDA-MB-468 cells
NCI-H460 = assay: Antiproliferative activity against human NCI-H460 cells
SK-BR-3 = assay: Antiproliferative activity against human SKBR3 cells
T47D = assay: Antiproliferative activity against human T47D cells

SMILES	IC50 (MDA-MB-468)	IC50 (NCI-H460)	IC50 (SK-BR-3)	IC50 (T47D)
CCCCCCCC[C@H](NC(=O)C(C)(C)NC(=O)C(C)(C)NC(=O)[C@H](CCCC(=O)CCCC)NC(=O)C1CCCN1C(=O)CCC)C(=O)N[C@@H](CC(C)C)C(=O)N[C@@H](C)C(=O)N[C@@H](CC(C)C)C(=O)NCCC(=O)N[C@@H](C)CNCCO (stereo partly drawn) (Butyryl-[ξP][Nva(5-pentanoyl)][Aib][Aib][Gly(octyl)]LAL[βAla]-{NH((S)CH(Me)CH2NHC2H4OH)})	> 1000 nM	266 nM	> 1000 nM	> 1000 nM
CCCC(=O)N1CCC[C@H]1C(=O)N[C@@H](C[C@H](C)C[C@@H](O)CC(=O)CC)C(=O)NC(C)(C)C(=O)NC(C)(C)C(=O)N[C@@H](C)C(=O)N[C@@H](CC(C)C)C(=O)NC(C)(C)C(=O)N[C@@H](CC(C)C)C(=O)NCCC(=O)N[C@@H](C)CNCCO (Butyryl-P[X1][Aib][Aib]AL[Aib]L[βAla]-{NH((S)CH(Me)CH2NHC2H4OH)})	> 1000 nM	> 10000 nM	> 30000 nM	> 1000 nM
CCCCC(=O)CCC[C@H](NC(=O)C1CCCN1C(=O)CCC)C(=O)NC(C)(C)C(=O)NC(C)(C)C(=O)N[C@@H](C)C(=O)N[C@@H](CC(C)C)C(=O)NC(C)(C)C(=O)N[C@@H](CC(C)C)C(=O)NCCC(=O)N[C@@H](C)CNCCO (stereo partly drawn) (Butyryl-[ξP][Nva(5-pentanoyl)][Aib][Aib]AL[Aib]L[βAla]-{NH((S)CH(Me)CH2NHC2H4OH)})	> 1000 nM	> 1000 nM	> 1000 nM	> 1000 nM
CCCCCCCC[C@H](NC(=O)C(C)(C)NC(=O)C(C)(C)NC(=O)[C@H](CCC(=O)O)NC(=O)[C@@H]1CCCN1C(=O)CCC)C(=O)N[C@@H](CC(C)C)C(=O)NC(C)(C)C(=O)N[C@@H](CC(C)C)C(=O)NCCC(=O)N[C@@H](C)CNCCO (Butyryl-PE[Aib][Aib][Gly(octyl)]L[Aib]L[βAla]-{NH((S)CH(Me)CH2NHC2H4OH)})	> 10000 nM	> 10000 nM	> 10000 nM	> 10000 nM
CCCCCCCC[C@H](NC(=O)C(C)(C)NC(=O)C(C)(C)NC(=O)[C@H](CCCC(=O)CCCC)NC(=O)C1CCCN1C(=O)CCC)C(=O)N[C@@H](C)C(=O)NC(C)(C)C(=O)N[C@@H](CC(C)C)C(=O)NCCC(=O)N[C@@H](C)CNCCO (stereo partly drawn) (Butyryl-[ξP][Nva(5-pentanoyl)][Aib][Aib][Gly(octyl)]A[Aib]L[βAla]-{NH((S)CH(Me)CH2NHC2H4OH)})	66 nM	103 nM	130 nM	51 nM
CCCCCCCC[C@H](NC(=O)C(C)(C)NC(=O)C(C)(C)NC(=O)[C@H](C)NC(=O)C1CCCN1C(=O)CCC)C(=O)N[C@@H](CC(C)C)C(=O)NC(C)(C)C(=O)N[C@@H](CC(C)C)C(=O)NCCC(=O)N[C@@H](C)CNCCO (stereo partly drawn) (Butyryl-[ξP]A[Aib][Aib][Gly(octyl)]L[Aib]L[βAla]-{NH((S)CH(Me)CH2NHC2H4OH)})	68 nM	71 nM	343 nM	61 nM
CCCC(=O)N1CCC[C@H]1C(=O)N[C@@H](C[C@H](C)C[C@@H](O)CC(=O)CC)C(=O)NC(C)(C)C(=O)NC(C)(C)C(=O)N[C@H](C(=O)N[C@@H](CC(C)C)C(=O)NC(C)(C)C(=O)N[C@@H](CC(C)C)C(=O)NCCC(=O)N[C@@H](C)CNCCO)[C@@H](C)CC (Butyryl-P[X1][Aib][Aib]IL[Aib]L[βAla]-{NH((S)CH(Me)CH2NHC2H4OH)})	142 nM	> 500 nM	> 1000 nM	251 nM
CCCCCCCC[C@H](NC(=O)C(C)(C)NC(=O)C(C)(C)NC(=O)CNC(=O)[C@@H]1CCCN1C(=O)CCC)C(=O)N[C@@H](CC(C)C)C(=O)NC(C)(C)C(=O)N[C@@H](CC(C)C)C(=O)NCCC(=O)N[C@@H](C)CNCCO (Butyryl-PG[Aib][Aib][Gly(octyl)]L[Aib]L[βAla]-{NH((S)CH(Me)CH2NHC2H4OH)})	76 nM	133 nM	310 nM	87 nM
CCCCCCCC[C@H](NC(=O)C(C)(C)NC(=O)C(C)(C)NC(=O)[C@H](CCCC(=O)CCCC)NC(=O)C1CCCN1C(=O)CCC)C(=O)N[C@@H](CC(C)C)C(=O)NC(C)(C)C(=O)N[C@@H](CC(C)C)C(=O)NCCC(=O)N[C@@H](C)CN[C@@H](C)C(=O)O (some centres undefined) (Butyryl-[ξP][Nva(5-pentanoyl)][Aib][Aib][Gly(octyl)]L[Aib]L[βAla]-X3)	> 500 nM	291 nM	> 1000 nM	> 500 nM

Now those with a lower IC50 (MDA-MB-468), led by results:

IC50 (MDA-MB-468)	IC50 (NCI-H460)	IC50 (SK-BR-3)	IC50 (T47D)	SMILES
26 nM	16 nM	36 nM	21 nM	CCCCCCCC[C@H](NC(=O)C(C)(C)NC(=O)C(C)(C)NC(=O)[C@H](CCCC(=O)CCCC)NC(=O)C1CCCN1C(=O)CCC)C(=O)N[C@@H](CC(C)C)C(=O)NC(C)(C)C(=O)N[C@@H](CC(C)C)C(=O)N[C@@H](C)C(=O)N[C@@H](C)CNCCO (stereo partly drawn) (Butyryl-[ξP][Nva(5-pentanoyl)][Aib][Aib][Gly(octyl)]L[Aib]LA-{NH((S)CH(Me)CH2NHC2H4OH)})
4 nM	8 nM	25 nM	3 nM	CCCCCCCC[C@H](NC(=O)C(C)(C)NC(=O)C(C)(C)NC(=O)[C@H](C[C@H](C)C[C@@H](O)CC(=O)CC)NC(=O)[C@@H]1CCCN1C(=O)CCC)C(=O)N[C@@H](CC(C)C)C(=O)NC(C)(C)C(=O)N[C@@H](CC(C)C)C(=O)NCCC(=O)N[C@@H](C)CNCCO (Butyryl-P[X1][Aib][Aib][Gly(octyl)]L[Aib]L[βAla]-{NH((S)CH(Me)CH2NHC2H4OH)})
48 nM	57 nM	150 nM	29 nM	CCCCCCCC[C@H](NC(=O)C(C)(C)NC(=O)C(C)(C)NC(=O)C(C)(C)NC(=O)[C@@H]1CCCN1C(=O)CCC)C(=O)N[C@@H](CC(C)C)C(=O)NC(C)(C)C(=O)N[C@@H](CC(C)C)C(=O)NCCC(=O)N[C@@H](C)CNCCO (Butyryl-P[Aib][Aib][Aib][Gly(octyl)]L[Aib]L[βAla]-{NH((S)CH(Me)CH2NHC2H4OH)})
31 nM	39 nM	96 nM	25 nM	CCCCCCCC[C@H](NC(=O)C(C)(C)NC(=O)C(C)(C)NC(=O)C1(NC(=O)[C@@H]2CCCN2C(=O)CCC)CCCCC1)C(=O)N[C@@H](CC(C)C)C(=O)NC(C)(C)C(=O)N[C@@H](CC(C)C)C(=O)NCCC(=O)N[C@@H](C)CNCCO (Butyryl-P[Ac6c][Aib][Aib][Gly(octyl)]L[Aib]L[βAla]-{NH((S)CH(Me)CH2NHC2H4OH)})
16 nM	19 nM	68 nM	17 nM	CCCCCCCC[C@H](NC(=O)C(C)(C)NC(=O)C(C)(C)NC(=O)C1(NC(=O)[C@@H]2CCCN2C(=O)CCC)CCC1)C(=O)N[C@@H](CC(C)C)C(=O)NC(C)(C)C(=O)N[C@@H](CC(C)C)C(=O)NCCC(=O)N[C@@H](C)CNCCO (Butyryl-P[Ac4c][Aib][Aib][Gly(octyl)]L[Aib]L[βAla]-{NH((S)CH(Me)CH2NHC2H4OH)})
21 nM	20 nM	24 nM	27 nM	CCCCCCCC[C@H](NC(=O)[C@H](C)NC(=O)C(C)(C)NC(=O)[C@H](CCCC(=O)CCCC)NC(=O)C1CCCN1C(=O)CCC)C(=O)N[C@@H](CC(C)C)C(=O)NC(C)(C)C(=O)N[C@@H](CC(C)C)C(=O)NCCC(=O)N[C@@H](C)CNCCO (stereo partly drawn) (Butyryl-[ξP][Nva(5-pentanoyl)][Aib]A[Gly(octyl)]L[Aib]L[βAla]-{NH((S)CH(Me)CH2NHC2H4OH)})
10 nM	8 nM	29 nM	10 nM	CCCCCCCC[C@H](NC(=O)C(C)(C)NC(=O)C(C)(C)NC(=O)[C@H](CC1CC1)NC(=O)[C@@H]1CCCN1C(=O)CCC)C(=O)N[C@@H](CC(C)C)C(=O)NC(C)(C)C(=O)N[C@@H](CC(C)C)C(=O)NCCC(=O)N[C@@H](C)CNCCO (Butyryl-P[Ala(cPr)][Aib][Aib][Gly(octyl)]L[Aib]L[βAla]-{NH((S)CH(Me)CH2NHC2H4OH)})
10 nM	6 nM	21 nM	8 nM	CCCCCCCC[C@H](NC(=O)C(C)(C)NC(=O)C(C)(C)NC(=O)[C@@H](NC(=O)[C@@H]1CCCN1C(=O)CCC)C1CCCCC1)C(=O)N[C@@H](CC(C)C)C(=O)NC(C)(C)C(=O)N[C@@H](CC(C)C)C(=O)NCCC(=O)N[C@@H](C)CNCCO (Butyryl-P[Chg][Aib][Aib][Gly(octyl)]L[Aib]L[βAla]-{NH((S)CH(Me)CH2NHC2H4OH)})
64 nM	87 nM	236 nM	57 nM	CCCCCCCC[C@H](NC(=O)C(C)(C)NC(=O)C(C)(C)NC(=O)C1(NC(=O)[C@@H]2CCCN2C(=O)CCC)CC1)C(=O)N[C@@H](CC(C)C)C(=O)NC(C)(C)C(=O)N[C@@H](CC(C)C)C(=O)NCCC(=O)N[C@@H](C)CNCCO (Butyryl-P[Ac3c][Aib][Aib][Gly(octyl)]L[Aib]L[βAla]-{NH((S)CH(Me)CH2NHC2H4OH)})
39 nM	45 nM	270 nM	49 nM	CCCCCCCC[C@H](NC(=O)C(C)(C)NC(=O)C(C)(C)NC(=O)[C@H](CCCCO)NC(=O)[C@@H]1CCCN1C(=O)CCC)C(=O)N[C@@H](CC(C)C)C(=O)NC(C)(C)C(=O)N[C@@H](CC(C)C)C(=O)NCCC(=O)N[C@@H](C)CNCCO (Butyryl-P[X2][Aib][Aib][Gly(octyl)]L[Aib]L[βAla]-{NH((S)CH(Me)CH2NHC2H4OH)})
20 nM	18 nM	47 nM	11 nM	CCCCCCCC[C@H](NC(=O)C(C)(C)NC(=O)C(C)(C)NC(=O)[C@H](CCCC(=O)CCCC)NC(=O)C1CCCN1C(=O)CCC)C(=O)N[C@@H](CC(C)C)C(=O)NC(C)(C)C(=O)N[C@@H](CC(C)C)C(=O)NCCC(=O)N[C@@H](C)CNCCO (stereo partly drawn) (Butyryl-[ξP][Nva(5-pentanoyl)][Aib][Aib][Gly(octyl)]L[Aib]L[βAla]-{NH((S)CH(Me)CH2NHC2H4OH)})
7 nM	6 nM	25 nM	8 nM	CCCCCCCC[C@H](NC(=O)C(C)(C)NC(=O)C(C)(C)NC(=O)[C@H](Cc1ccccc1)NC(=O)[C@@H]1CCCN1C(=O)CCC)C(=O)N[C@@H](CC(C)C)C(=O)NC(C)(C)C(=O)N[C@@H](CC(C)C)C(=O)NCCC(=O)N[C@@H](C)CNCCO (Butyryl-PF[Aib][Aib][Gly(octyl)]L[Aib]L[βAla]-{NH((S)CH(Me)CH2NHC2H4OH)})
